Laboratory results published in US8598413B2, “AAD-1 event DAS-40278-9, related transgenic corn lines, event-specific identification thereof, and methods of weed control involving AAD-1” (Dow AgroSciecnes, LLC., priority 2009, dated 2013).

What was measured:
[1] = test system: hybrid corn containing pDAS1740-278; test: Field tolerance to preemergence applications of 2,4-D (Example 13, Table 31); assay type: in vivo; conditions: PRE (0-2 days after planting), evaluated 16-21 days after application, pDAS1740-278 Hybrid
Experimental: (§1) Transgenic hybrid corn (pDAS1740-278) containing the aad-1 gene which encodes the aryloxyalkanoate dioxygenase (AAD-1) protein was evaluated for tolerance to preemergence applications of 2,4-D in the field. Trials were conducted at multiple locations in Mississippi, Indiana, and Minnesota using a randomized complete block design with three replications of two row plots, approximately 6 m in length, at each site. Herbicide-treated plots were paired with untreated plots to provide accurate evaluation of emergence and early season growth. Herbicide treatments of 1120, 2240, and 4480 g ae/ha of 2,4-D amine were applied shortly after planting but before crop emergence (0-2 days after planting). Soil and precipitation information for these trials is contained in Table 30.

[2] = test system: transgenic cotton containing the aad-1 gene; test: Field tolerance of aad-1 cotton to preemergence applications of 2,4-D (Example 13); assay type: in vivo
Experimental: Transgenic cotton containing the aad-1 gene which encodes the aryloxyalkanoate dioxygenase (AAD-1) protein was evaluated for tolerance to preemergence applications of 2,4-D in the field. Trials consisted of three replications and were conducted at multiple locations in Mississippi, Georgia, Tennessee, and Arkansas. A randomized complete block design of a single row separated by a guard row, approximately 10 feet (20 feet for the Mississippi trial) in length was used. Seed was planted using 8 seed per foot, plants were then hand thinned to 3.5 plants/foot of row. Herbicide-treated plots were paired with untreated plots to provide accurate evaluation of emergence and early season growth. All plots received at least ½ inch of rain or irrigation water within 24 hours of application. Herbicide treatments of 560, 1120, 2240, and 4480 g ae/ha of 2,4-D amine (WEEDAR 64, Nufarm, Burr Ridge, Ill.) were applied shortly after planting but before crop emergence. Soil and precipitation information for these trials is contained in Table 32.

[3] = test system: hybrid corn containing the aad-1 gene; test: 2,4-D amine applied 7, 15 or 30 days preplanting, corn (Example 13); assay type: in vivo; conditions: 1120, 2240, 4480 g ae/ha at 7, 15 or 30 days preplanting
Text: Preemergence applications of 2,4-D amine are applied at rates of 1120, 2240, 4480 g ae/ha at 7 days, 15 days, or 30 days preplanting to hybrid corn containing the aad-1 gene and conventional control hybrids. The preemergence applications are applied using art recognized procedures to field plots which are located at geographically distinct locales. Herbicide-treated plots are paired with untreated plots to provide accurate evaluation of emergence and early season growth. Approximately 16-21 days after planting and 2,4-D applications at 7, 15 or 30 days preplanting; injury of the conventional control hybrids and hybrid corn containing aad-1 are measured.

[4] = test system: conventional control hybrid; test: Field tolerance to preemergence applications of 2,4-D (Example 13, Table 31); assay type: in vivo, corn; conditions: PRE (0-2 days after planting), evaluated 16-21 days after application
Experimental: as §1

[5] = preemergence 560, 1120, 2240 and 4480 gm ae/ha

## O=C(O)COc1ccc(Cl)cc1Cl [2,4-D, 2,4-dichlorophenoxyacetic acid]
[1]; 1120 g ae/ha
  Percent Plant Injury: 3%
[1]; 2240 g ae/ha
  Percent Plant Injury: 4%
[1]; 4480 g ae/ha
  Percent Plant Injury: 9%
[2]; 560, 1120, 2240 and 4480 gm ae/ha, remainder of the season
  Chlorosis: not detected
[2]; 560 and 1120 gm ae/ha
  Injury: not significantly different from the untreated control plot
[2]; 560 and 1120 gm ae/ha, 7 to 8, 11 to 14, 27 to 30 and 52 to 57 days after application
  growth inhibition: less than 2%
[2]; 560 and 1120 gm ae/ha, 7 to 8 days after application
  Chlorosis: not detected
[2]; 560 gm ae/ha, 7 to 8 days after planting and preemergence application
  stand reduction: 3%
[2]; 560 gm ae/ha, 11 to 14 days after planting and application
  stand reduction: 5%
[2]; 1120 gm ae/ha, 7 to 8 days after planting and preemergence application
  stand reduction: no reduction
[2]; 1120 gm ae/ha, 11 to 14 days after planting and application
  stand reduction: 2%
[2]; 2240 and 4480 gm ae/ha, 7-8 days after application
  Chlorosis, visual rating: < 5%
[2]; 2240 gm ae/ha
  growth inhibition: < 10%
[2]; 2240 gm ae/ha, 7 to 8 days after planting and preemergence application
  stand reduction: 19%
[2]; 2240 gm ae/ha, 11 to 14 days after planting and application
  stand reduction: 14%
[2]; 4480 gm ae/ha, 7 to 8 days after application
  growth inhibition: 27%
[2]; 4480 gm ae/ha, 7 to 8 days after planting and preemergence application
  stand reduction: 34%
[2]; 4480 gm ae/ha, 11 to 14 days after application
  growth inhibition: 28%
[2]; 4480 gm ae/ha, 11 to 14 days after planting and application
  stand reduction: 25%
[2]; 4480 gm ae/ha, 27 to 30 days after application
  growth inhibition: 17%
[2]; 4480 gm ae/ha, 52 to 57 days after application
  growth inhibition: 8.3%
[2]; [5]
  Differences in plant height, fruiting pattern, and yield: not detected
  epinasty: did not cause epinasty
[2]; preemergence 560, 1120 and 2240 gm ae/ha, compared to untreated plot
  effect on plant stands: did not significantly affect plant stands
[3]
  tolerance of preemergence treatments: robust tolerance
[4]; 1120 g ae/ha
  Percent Plant Injury: 12%
[4]; 2240 g ae/ha
  Percent Plant Injury: 16%
[4]; 4480 g ae/ha
  Percent Plant Injury: 31%
